From ChEMBL document CHEMBL5316366, “Immunomodulatory Effects of New Phenanthrene Derivatives from Dendrobium crumenatum” (J Nat Prod, 2023) come the findings set out here.

Data set [1] has as its system PBMC. Description: Immunomodulatory activity in PMA/ionomycin-induced human PBMC assessed as reduction in frequency of IL-2 expressing CD3+ T cells at 1 to 20 uM incubated for 4 hrs by flow cytometry. In kind it is functional, cell-based. To be noted: dose 1-20 µM.
The test system of data set [2] is PBMC. Briefly: Cytotoxicity against human PBMC assessed as late apoptotic cells at 1 to 20 uM incubated for 4 hrs by Annexin V-FITC/7-AAD staining based flow cytometric analysis. In kind it is toxicity, cell-based. The following applies: dose 1-20 µM.
Data set [3] deals with PBMC. Briefly: Cytotoxicity against human PBMC assessed as early apoptotic cells at 1 to 20 uM incubated for 4 hrs by Annexin V-FITC/7-AAD staining based flow cytometric analysis. In kind it is toxicity, cell-based. To be noted: dose 1-20 µM.
Data set [4] deals with PBMC. Description: Immunomodulatory activity in human PBMC derived from multiple sclerosis patient assessed as reduction in IFN-gamma expressing CD3+ T cells at 10 uM incubated for 4 hrs by flow cytometry. The class given is functional, cell-based.
Data set [5] has as its system PBMC. Briefly: Immunomodulatory activity in human PBMC derived from multiple sclerosis patient assessed as reduction in TNF-alpha expressing CD3+ T cells at 10 uM incubated for 4 hrs by flow cytometry. The class given is functional, cell-based.
Data set [6] concerns PBMC. Description: Inhibition of Ca2+ influx in human PBMC derived from multiple sclerosis patient assessed as reduction in Ca2+ influx rate in CD4+ T cells at 10 uM incubated for 4 hrs by Fluo-4 AM staining based flow cytometry method. In kind it is functional, cell-based.
The subject of data set [7] is PBMC. Description: Immunomodulatory activity in human PBMC derived from multiple sclerosis patient assessed as reduction in IL-2 expressing CD3+ T cells at 10 uM incubated for 4 hrs by flow cytometry. In kind it is functional, cell-based.
The test system of data set [8] is PBMC. Briefly: Inhibition of Ca2+ influx in human PBMC derived from multiple sclerosis patient assessed as reduction in Ca2+ influx rate in CD8+ T cells at 10 uM incubated for 4 hrs by Fluo-4 AM staining based flow cytometry method. The class given is functional, cell-based.
Data set [9] relates to PBMC. Briefly: Inhibition of Ca2+ influx in human PBMC derived from multiple sclerosis patient assessed as decrease in Ca2+ influx rate in CD8+ T cells at 1 uM incubated for 4 hrs by Fluo-4 AM staining based flow cytometry method. The class given is functional, cell-based.
Data set [10] concerns PBMC. Description: Inhibition of Ca2+ influx in human PBMC derived from multiple sclerosis patient assessed as decrease in Ca2+ influx rate in CD4+ T cells at 1 uM incubated for 4 hrs by Fluo-4 AM staining based flow cytometry method. The class given is functional, cell-based.
The test system of data set [11] is PBMC. Description: Immunomodulatory activity in PMA/ionomycin-induced human PBMC assessed as reduction in frequency of TNF-alpha expressing CD14+ inflammatory monocytes at 1 to 20 uM incubated for 4 hrs by flow cytomtery. The class given is functional, cell-based. The following applies: dose 1-20 µM.
For data set [12], the system named is PBMC. Briefly: Immunomodulatory activity in multiple sclerosis patient derived PBMC derived from multiple sclerosis patient assessed as increase in frequency of CTLA4+CRTH2+ CD8+ T cells by CyTOF assay. In kind it is functional, cell-based. The following applies: Homo sapiens.
Data set [13] relates to PBMC. Briefly: Immunomodulatory activity in PMA/ionomycin-induced human PBMC assessed as reduction in frequency of IFN-gamma expressing CD3+ activated T cells at 1 to 20 uM incubated for 4 hrs by flow cytometry. In kind it is functional, cell-based. The following applies: dose 1-20 µM.
Data set [14] relates to PBMC. Briefly: Immunomodulatory activity in PMA/ionomycin-induced human PBMC derived from multiple sclerosis patient assessed as decrease in frequency of CD161+ CD3+T-bet+CD4-CD8-CD14- double negative T cells by CyTOF assay. In kind it is functional, cell-based.
In data set [15] the test system is PBMC. Briefly: Immunomodulatory activity in PMA/ionomycin-induced human PBMC derived from multiple sclerosis patient assessed as increase in frequency of CTLA4+CRTH2+ CD8+ T cells by CyTOF assay. In kind it is functional, cell-based.
Data set [16] has as its system PBMC. Briefly: Immunomodulatory activity in multiple sclerosis patient derived PBMC derived from multiple sclerosis patient assessed as reduction in frequency of reactive ICOS+ CD4+ T cells by CyTOF assay. In kind it is functional, cell-based. To be noted: Homo sapiens.
Data set [17] has as its system PBMC. Briefly: Immunomodulatory activity in PMA/ionomycin-induced human PBMC derived from multiple sclerosis patient assessed as reduction in frequency of reactive ICOS+ CD4+ T cells by CyTOF assay. The class given is functional, cell-based.

Active and inactive are the calls of the source. The calls are words filed in the database; no cut-off is given here.

For `COc1cc2c(c(OC)c1O)-c1ccc(O)c(O)c1CC2`, the result with PBMC [1], in the data set with PBMC [4], in the data set with PBMC [5] and in the data set with PBMC [7] was Active. Besides, the Activity result in the data set with PBMC [2] and with PBMC [3] was “Non-Toxic” each time. Further, the inhibition result in the data set on PBMC [6] and in the data set on PBMC [8] was “inactive” in each case.
As to `COC1=CC(=O)c2c(ccc3c(OC)c(O)ccc23)C1=O`, the outcome in the data set on PBMC [1] was Active.
`COc1cc2ccc3c(OC)c(O)ccc3c2c(OC)c1O`: in the data set on PBMC [1], the outcome was Active.
In the case of `Cc1cccc(F)c1C(=O)Nc1cnc(-c2cc3c(cc2Cl)OC(F)(F)O3)cn1`, the inhibition entry with PBMC [9] and with PBMC [10] was “Active” in each case.
On to `COC1=CC(=O)c2c(ccc3c(OC)c(O)ccc23)[C@@]12Oc1cc(OC)cc3ccc4c(c13)C2=CC(=O)C4=O`, for which the outcome in the data set with PBMC [1], with PBMC [4], in the data set with PBMC [11], with PBMC [12], in the data set with PBMC [5] and with PBMC [13] was Active. Also, the outcome with PBMC [14], with PBMC [15], with PBMC [16], in the data set on PBMC [7] and in the data set with PBMC [17] was Active. The Activity entry in the data set with PBMC [2] and with PBMC [3] was “Non-Toxic” in each case. The inhibition entry in the data set on PBMC [6] and in the data set with PBMC [8] was “inactive” each time.
